According to PubChem BioAssay (NCI):
Where “and” joins values, the source holds several entries; their conditions need not be identical. Equal values may be shown once.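 Five concentrations, 48 hours, 96-well plates. GI50 = concentration required for 50% inhibition of growth. TGI marks complete inhibition of growth.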

Legend:
Experiment in all cases: NCI-60 cell line screen, 48 h
DMS 114 small cell lung = tested on: DMS 114 small cell lung
DMS 273 small cell lung = tested on: DMS 273 small cell lung
HOP-18 NSCLC = tested on: HOP-18 NSCLC
KM20L2 colon = tested on: KM20L2 colon
LXFL 529 NSCLC = tested on: LXFL 529 NSCLC
NCI-H460 lung = tested on: NCI-H460 lung
OVCAR-4 ovarian = tested on: OVCAR-4 ovarian
HS 578T breast = tested on: HS 578T breast
MCF7 breast = tested on: MCF7 breast
MDA-MB-435 = tested on: MDA-MB-435

| SMILES | TGI (DMS 114 small cell lung) | TGI (DMS 273 small cell lung) [µM] | TGI (HOP-18 NSCLC) | TGI (KM20L2 colon) | TGI (LXFL 529 NSCLC) | TGI (NCI-H460 lung) | TGI (OVCAR-4 ovarian) | GI50 (DMS 114 small cell lung) [µM] | GI50 (DMS 273 small cell lung) [µM] | GI50 (HOP-18 NSCLC) [µM] | GI50 (KM20L2 colon) [µM] | GI50 (NCI-H460 lung) [µM] | TGI (HS 578T breast) [µM] | TGI (MCF7 breast) [µM] | TGI (MDA-MB-435) [µM] | GI50 (LXFL 529 NSCLC) [µM] | GI50 (OVCAR-4 ovarian) [µM] |
| --- | --- | --- | --- | --- | --- | --- | --- | --- | --- | --- | --- | --- | --- | --- | --- | --- | --- |
| C/C(=N\NS(=O)(=O)c1ccc(C)cc1)c1ccc[n+]([O-])n1 | > 100 µM | > 100 | > 100 µM | > 100 µM | > 100 µM | > 100 µM | > 100 µM | – | – | – | – | – | – | – | – | – | – |
| CC(C)OP(=O)(OC(C)C)C(N(C)C)P(=O)(OC(C)C)OC(C)C.[Cl][Sn]([Cl])([Cl])[c]1ccccc1 | 23.1 µM | 10.6 | > 100 µM | 15.8 µM | – | 29.6 µM | – | 3.68 | 2.67 | > 100 | 2.32 | 2.15 | – | – | – | – | – |
| CC(C)OP(=O)(CP(=O)(OC(C)C)OC(C)C)OC(C)C.[CH3][Sn]([Br])([Br])[Br] | > 100 µM | > 100 | > 100 µM | > 100 µM | – | > 100 µM | – | > 100 | > 100 | > 100 | > 100 | > 100 | – | – | – | – | – |
| c1ccc(SCCCC(Sc2ccccc2)Sc2ccccc2)cc1 | > 100 µM | > 100 | – | > 100 µM | > 100 µM | > 100 µM | > 100 µM | – | – | – | – | – | – | – | – | – | – |
| COc1cc2c3c(c1OC)-c1ccccc1C(C(OC(C)=O)c1ccccc1)C3N(C)CC2 (stereo unspecified) | > 100 µM | > 100 | > 100 µM | > 100 µM | > 100 µM | > 100 µM | > 100 µM | – | – | – | – | – | – | – | – | – | – |
| Cc1nnc2n1N=C(CC(=O)c1ccc(O)cc1O)CN2N | 40 µM | > 100 | – | > 100 µM | > 100 µM | > 100 µM | > 100 µM | – | – | – | – | – | – | – | – | – | – |
| CC1=CC2=C(C)C3(CC3)[C@@](C)(O)C(=O)C2=C1 | 0.313 µM | 0.696 | 0.528 µM | 0.498 µM | 0.783 µM | 0.431 µM | 0.356 µM | – | – | – | – | – | – | – | – | – | – |
| CC(=O)NC1C(OCc2ccccc2)OC(COC(=O)CCCCCCCCCCNC(=O)c2cccc3c(=O)c4ccccc4[nH]c23)C(O)C1OC(C)C(=O)NC(C)C(=O)NC(CCC(N)=O)C(N)=O (stereo unspecified) | > 100 µM | > 100 | > 100 µM | > 100 µM | > 100 µM | > 100 µM | > 100 µM | – | – | – | – | – | – | – | – | – | – |
| Brc1ccc2c(c1)C1(c3cc(Br)ccc3-2)c2cc(Br)ccc2-c2ccc(Br)cc21 | > 100 µM | > 100 | > 100 µM | > 100 µM | > 100 µM | > 100 µM | > 100 µM | – | – | – | – | – | – | – | – | – | – |
| COc1ccc2cccc(C(=N)c3ccc(C)c4c3CCC4)c2c1 | 19.9 µM | 21.2 | 15.5 µM | 19.3 µM | 16.5 µM | 16.7 µM | 24.9 µM | – | – | – | – | – | – | – | – | – | – |
| COc1ccc([Se]c2ccc(OC)cc2OC)c(OC)c1 | 13 µM | 17.6 | 86 µM | 31.6 µM | > 100 µM | > 100 µM | > 100 µM | – | – | – | – | – | – | – | – | – | – |
| CC1CCC(O)C(C(O)CC2CC(=O)N(C)C(=O)C2)C1 (stereo unspecified) | > 100 µM | > 100 | > 100 µM | > 100 µM | > 100 µM | > 100 µM | > 100 µM | – | – | – | – | – | – | – | – | – | – |
| COc1ccc(S(=O)(=O)N/N=C/C(=O)O)cc1 | 1230 µM | > 1200 | > 1250 µM | > 1250 µM | – | > 1230 µM | > 1210 µM | – | – | – | – | – | 1040 | > 1210 | > 1250 | – | – |
| O=C1[C@H]2C(c3ccccc3)=NN(C(=O)c3ccccc3)[C@H]2C(=O)N1c1ccccc1 | > 100 µM | > 100 | > 100 µM | – | – | > 100 µM | – | – | – | – | – | – | – | – | – | – | – |
| Cc1cc(CS(=O)(=O)/C=C/c2ccccc2[N+](=O)[O-])c(CS(=O)(=O)/C=C/c2ccccc2[N+](=O)[O-])cc1C | > 100 µM | > 100 | – | > 100 µM | > 100 µM | > 100 µM | 32.3 µM | – | – | – | – | – | > 62.5 | > 100 | > 100 | – | – |
| COC(=O)C12CC(C3CC31)C1CC12 (stereo unspecified) | > 100 µM | > 100 | > 100 µM | > 100 µM | > 100 µM | > 100 µM | > 100 µM | – | – | – | – | – | – | – | – | – | – |
| Cc1ccc(NC(=O)CCC(=O)C2CC(=O)CC/C2=N\NC(=O)c2cc3ccccc3cc2O)cc1C (stereo unspecified) | 51.6 µM | 43.1 | > 100 µM | 87.9 µM | > 100 µM | > 100 µM | 51.4 µM | – | – | – | – | – | – | – | – | – | – |
| O=c1c2ccccc2nc(-c2ccccc2)n1NCC1(O)OCC(O)C(O)C1O (stereo unspecified) | > 100 µM | > 100 | > 100 µM | > 100 µM | > 100 µM | > 100 µM | > 100 µM | – | – | – | – | – | – | – | – | – | – |
| COC(=O)/C(C#N)=C1\N=NNN1CCCN1CCOCC1 | > 100 µM | > 100 | > 100 µM | – | > 100 µM | > 100 µM | – | – | – | – | – | – | – | – | – | – | – |
| O=C1c2c(O)cccc2C(C(=O)CCCCC(=O)C2c3cccc(O)c3C(=O)c3c(O)cccc32)c2cccc(O)c21 | 1.48 µM and 1.83 µM | 4.51 | 1.79 µM and 1.88 µM | 4.39 µM and 5.46 µM | 1.01 µM and 1.95 µM | 1.35 µM and 1.65 µM | 1.74 µM and 2.31 µM | 1.01 | – | 0.996 | 1.58 | – | 0.951 | 6.18 | 3.01 | 1.04 | 1.21 |
| O=C1OCC(C(=O)c2cccc(O)c2)C1=O (stereo unspecified) | > 100 µM | > 100 | > 100 µM | > 100 µM | > 100 µM | > 100 µM | > 100 µM | – | – | – | – | – | – | – | – | – | – |
| Cc1cc(N(CCC#N)S(=O)(=O)c2ccccc2)ccc1C=O | > 100 µM | > 100 | > 100 µM | > 100 µM | > 100 µM | > 100 µM | > 100 µM | – | – | – | – | – | – | – | – | – | – |
| CCOC(=O)CCC1(C(=O)OC)CCCC1=O (stereo unspecified) | > 100 µM | > 100 | > 100 µM | > 100 µM | > 100 µM | > 100 µM | – | – | – | – | – | – | – | – | – | – | – |
| COC(=O)C(CC=O)C(=O)C(=O)Nc1cccc(C(F)(F)F)c1 (stereo unspecified) | > 100 µM | – | > 100 µM | > 100 µM | > 100 µM | > 100 µM | > 100 µM | – | – | – | – | – | – | – | – | – | – |
| Oc1cc2cc(-c3ccccc3)[nH]c2c2ccccc12 | 27.7 µM | 2.06 | > 96 µM | > 100 µM | > 100 µM | 72.1 µM | > 100 µM | – | – | – | – | – | – | – | – | – | – |
| c1ccc2c(c1)CCCc1cc3ccccc3nc1-2 | 75.1 µM | – | > 100 µM | > 100 µM | > 100 µM | > 100 µM | > 100 µM | – | – | – | – | – | – | – | – | – | – |
| CC1OC(=O)N(CCCC=C2SCCCS2)C1=O (stereo unspecified) | > 100 µM | > 100 | > 100 µM | > 100 µM | > 100 µM | > 100 µM | > 100 µM | – | – | – | – | – | – | – | – | – | – |
| CCOC(=O)c1cnc2[nH]c(=O)c3ccccc3n2c1=O | – | > 100 | > 100 µM | > 100 µM | > 100 µM | > 100 µM | > 100 µM | – | – | – | – | – | – | – | – | – | – |
| O=C(CCCCCCCCC(=O)OCC1OC(n2cnc3c(=O)[nH]cnc32)C(O)C1O)OCC1OC(n2cnc3c(=O)[nH]cnc32)C(O)C1O (stereo unspecified) | > 100 µM | > 100 | > 100 µM | > 100 µM | – | > 100 µM | > 100 µM | – | – | – | – | – | – | – | – | – | – |
| O=C(CCCCCCCCCCc1ccccc1)c1c(O)cccc1O | 45.3 µM | 34 | 67.5 µM | > 100 µM | 34.7 µM | 39.6 µM | 57.5 µM | – | – | – | – | – | – | – | – | – | – |
